Experimental data: patent publication US20100029710A1, “COMPOUNDS HAVING BOTH ANGIOTENSIN II RECEPTOR ANTAGONISM AND PPARy ACTIVATING ACTIVITIES” (Pfizer Products Inc., priority 2006, published 2010)

Key:
[1] = target: T1, Human recombinant AT1 receptor (Homo sapiens, UniProt P30556); test: AT1 receptor radioligand binding (flashplate); settings: 125I Sar1,Ile8-Angiotensin II radioligand
T1 construct: purchased
T1 sequence (P30556 1-359): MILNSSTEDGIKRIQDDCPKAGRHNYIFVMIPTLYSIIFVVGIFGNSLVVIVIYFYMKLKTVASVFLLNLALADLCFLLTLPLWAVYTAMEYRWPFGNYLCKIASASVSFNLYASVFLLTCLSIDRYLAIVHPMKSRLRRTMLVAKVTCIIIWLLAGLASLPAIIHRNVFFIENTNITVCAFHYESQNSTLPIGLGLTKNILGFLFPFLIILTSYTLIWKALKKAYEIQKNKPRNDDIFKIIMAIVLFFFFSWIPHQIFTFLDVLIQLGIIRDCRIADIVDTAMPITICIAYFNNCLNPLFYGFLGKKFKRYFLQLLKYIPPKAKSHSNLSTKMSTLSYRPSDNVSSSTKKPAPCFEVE
Outline: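 Human recombinant AT1 receptor was coated on flashplates and competed against 125I-Sar1,Ile8-angiotensin II at its Kd concentration for 2 h at room temperature. Compounds were tested from […], with nonspecific binding defined by 10 μM angiotensin II. Ki was derived via Cheng-Prusoff.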

[2] = target: T2, human PPARγ LBD bound to Gal4 DBD (Homo sapiens, UniProt P37231); test: PPARγ transfection luciferase reporter assay in HepG2 cells; assay type: cell-based; settings: for Emax: HepG2, 24 h, compared to full agonist response (standard TZD full agonist), read-out: PPARγ % activation; for EC50: HepG2, 24 hours exposure
T2 construct: expressed in transfected cells; host or cells: HepG2
T2 sequence (P37231 238-503 limits assumed): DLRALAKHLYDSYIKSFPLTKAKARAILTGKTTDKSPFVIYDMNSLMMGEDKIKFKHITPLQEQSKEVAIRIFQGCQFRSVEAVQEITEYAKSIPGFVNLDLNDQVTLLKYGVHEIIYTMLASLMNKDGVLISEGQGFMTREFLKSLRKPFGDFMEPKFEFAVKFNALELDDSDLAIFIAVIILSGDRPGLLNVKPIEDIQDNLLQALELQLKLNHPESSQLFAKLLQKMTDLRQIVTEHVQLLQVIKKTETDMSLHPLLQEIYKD
Outline: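 HepG2 cells transiently co-transfected with Gal4 DBD–PPARγ LBD, luciferase reporter and β-galactosidase, then exposed 24 h to compound (0.1 nM–100 μM). Luciferase/β-gal ratio gives activation. EC50 is relative to each compound's own maximum; efficacy is % of a reference TZD full agonist.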

[3] = system: Spontaneously hypertensive rats (SHR); test: Blood pressure reduction in vivo assay (radiotelemetry); settings: SHR rat, single dose 10 mg/kg p.o.
Description: The rats are surgically implanted with radio-telemetry transmitters to allow capture of conscious, unrestrained systolic and diastolic BP as well as heart rate.
In vivo studies were conducted to show the effectiveness of a compound in reducing blood pressure due to its angiotensin II receptor antagonist activity, and its ability to induce insulin sensitization in a diabetic rat due to its PPARγ agonist activity.
Spontaneously hypertensive rats (SHR) were implanted with radiotelemetry devices capable of measuring blood pressure (BP) via an aortic cannula and transmitting the data to a receiving pad under the cage. Animals were conscious and had access to food and water ad libitum while blood pressure was monitored continuously. Rats were dosed with vehicle and monitored for 24 hours to establish baseline before administering compound and measuring changes in blood pressure for another 24 hours. Changes in blood pressure were calculated over time and compared to vehicle controls.

ZDF male rat = test: Glucose lowering in vivo assay; settings: 10 mg/kg p.o. once daily for 28 days; for Difference from Vehicle Control: blood glucose
Description: Homozygous expression of this mutation leads to a phenotype of hyperphagia, obesity, insulin resistance, hyperglycemia, and hypertriglyceridemia resulting in uncontrolled diabetes, β-cell failure, severe nephropathy, and proteinuria by 16 weeks of age.
The hypoglycemic activity of the compounds of this invention can be determined by the amount of test compound that delays or suppresses elevations in glucose levels relative to a vehicle without test compound in male ZDF rats.
Male Zucker Diabetic Fatty (ZDF/Crl-Lepr^fa) rats were obtained from Charles River Laboratories (Wilmington, Mass.). Rats were pair housed under a 12-h light/dark cycle with free access to water and Purina 5008 rat chow (Protein 26.8%, fat 16.7%, carbohydrates 56.5% kcal/vol; Purina Mills, Richmond, Ind.). Prior to the onset of diabetic hyperglycemia (fed blood glucose<200 mg/dl) rats were randomly allocated to groups based on HOMA values. The Homeostasis Model Assessment (HOMA) calculation estimates peripheral insulin resistance from corresponding insulin and glucose measurements. Rats were administered a once daily oral dose for 28 days with suspensions of vehicle alone (1.5% carboxymethyl-cellulose plus 0.2% Tween 20), vehicle plus test compound in the range 0.1-100 mg/kg. At the end of the study, an oral glucose tolerance test (OGTT, 2 g/kg dextrose) was conducted to measure glucose excursion. Tail venipuncture in conscious, 1 hr fasted animals at baseline and weekly thereafter, provided sample for blood glucose, serum insulin, triglycerides, cholesterol, and FFA measurements. Glucose levels were determined with a HemoCue Glucose Monitor (Ryan Diagnostics), insulin was determined by ELISA (Alpco), and lipids were determined by Cobas Mira Analyzer (Roche) and by enzymatic assays (Wako). Lipoprotein cholesterol was determined by FPLC following the method of Kieft et al. (Kieft K A, Bocan T M, Krause B R. Rapid on-line determination of cholesterol distribution among plasma lipoproteins after high-performance gel filtration chromatography. J Lipid Res 1991; 32(5): 859-66). Briefly, plasma was separated on a Superose 6HR 10/30 column (Pharmacia) and cholesterol was then measured in-line utilizing a post-column enzymatic cholesterol assay (Roche). Percent of total area for each lipoprotein fraction were calculated. These percent areas were then multiplied by the total plasma cholesterol concentration, yielding the cholesterol concentration in each fraction. Efficacy was determined by comparison to untreated vehicle controls and reference agents and active compounds selected for further evaluation.

IC50 [1] | Emax [2] | EC50 [2] | SMILES | Duration of activity [3] | Maximal fall in Mean Blood Pressure after single dose of 10 mg/kg p.o. (mmHg) [3] | Blood Glucose (1 h Fast) after single daily dose of 10 mg/kg p.o. for 28 days (ZDF male rat) | Difference from Vehicle Control (ZDF male rat)
1.6 nM | 27% | 145 nM | CCc1nc2c(C)cc([C@@H](O)C(C)C)nc2n1[C@H]1CCc2cc(-c3ccccc3-c3nnn[nH]3)ccc21 [Example 10, (S)-1-(3-((1S)-5-(2-(1H-tetrazol-5-yl)phenyl)-2,3-dihydro-1H-inden-1-yl)-2-ethyl-7-methyl-3H-imidazo[4,5-b]pyridin-5-yl)-2-methylpropan-1-ol] | >20 h | −27 mmHg | 239 mg/dL | -133 mg/dL
2.5 nM | 26% | 435 nM | CCc1nc2c(C)cc(CCOC)nc2n1[C@H]1CCc2cc(-c3ccccc3-c3nnn[nH]3)ccc21 [Example 13, 3-((1S)-5-(2-(1H-tetrazol-5-yl)phenyl)-2,3-dihydro-1H-inden-1-yl)-2-ethyl-5-(2-methoxyethyl)-7-methyl-3H-imidazo[4,5-b]pyridine] | >20 h | −46 mmHg | 120 mg/dL | -469 mg/dL
4.1 nM | 24% | 415 nM | CCc1nc2c(C)cc(CCO)nc2n1[C@H]1CCc2cc(-c3ccccc3-c3nnn[nH]3)ccc21 [Example 13a, 2-(3-((1S)-5-(2-(1H-tetrazol-5-yl)phenyl)-2,3-dihydro-1H-inden-1-yl)-2-ethyl-7-methyl-3H-imidazo[4,5-b]pyridin-5-yl)ethanol] | >20 h | −28 mmHg | 112 mg/dL | -477 mg/dL
2.9 nM | 20% | 250 nM | CCc1nc2c(C)cc(CC(C)(C)O)nc2n1[C@H]1CCc2cc(-c3ccccc3-c3nnn[nH]3)ccc21 [Example 16, 1-(3-((1S)-5-(2-(1H-tetrazol-5-yl)phenyl)-2,3-dihydro-1H-inden-1-yl)-2-ethyl-7-methyl-3H-imidazo[4,5-b]pyridin-5-yl)-2-methylpropan-2-ol] | >20 h | −37 mmHg | 114 mg/dL | -475 mg/dL
